Experimental data: patent US20090257988A1, “METHODS AND COMPOSITIONS FOR ACCELERATING THE GENERATION OF REGULATORY T CELLS EX VIVO” (USC Stevens, Hughes Center, priority 2008, published 2009)
“Also recorded” adds a separate entry of the source.

What was measured:
CD4+ cells = experiment: Proliferation of cultured CD4+ cells upon re-stimulation; format: cell-based, human; details: after 6 days of culture
From the text: A further phenotypic property of nTregs is poor proliferative responsiveness, which is often accompanied by lowered production of certain pro-proliferation cytokines, such as IL-2. Other cytokines, such as IL-4, IFNγ and TFN-α are also associated with proliferation, although they are generally produced in low levels even in proliferating cells. Proliferation response can be measured using methods known in the art, such as thymidine uptake assays and assays of carboxyfluorescein succinimidyl ester (CFSE) dilution.
As discussed above, one phenotypic property of nTregs is poor proliferative responsiveness. Human naïve CD4+ cells stimulated with IL-2 and TGF-β become FOXP3+, but are only partially differentiated suppressor cells. […] Since the only source of pro-proliferative cytokines are the iTregs themselves, the lack of proliferation by azacytidine-treated cells is consistent with poor cytokine production, which is a distinguishing characteristic of nTregs.

[1] = test system: memory CD4+ cells (CD45RO+); experiment: Stimulation of memory CD4+ cells (CD45RO+) with or without azacytidine (Example 7); format: cell-based
Method: In addition to naïve CD4+ cells (also referred to as CD45RA+ cells), memory CD4+ cells (CD45RO+) are stimulated and assessed for the effect of azacytidine and azacytidine+retinoic acid on their phenotypic properties. These memory CD4+ cells represent a resting but previously activated population. The cells are stimulated with anti-CD3/anti-CD28 beads (at 1 in 10) with or without azacytidine (1 μM), azacytidine combined with all-trans retinoic acid and also with or without TGF-β (5 ng/ml). After 6 days, the cells are depleted of stimulating beads and assayed for FOXP3 expression, suppressor activity and proliferative activity. Greater than 50% of the stimulated cells express FOXP3. Enhanced FOXP3 expression in cells cultured in medium alone may be due to TGF-β provided by non-T cells in the culture.
Remaining cells are restimulated with anti-CD3/anti-CD28 (at 1 in 10) with or without fresh azacytidine and/or azacytidine plus retinoic acid, such that there is a group from each CD4+ subset that is exposed to azacytidine/azacytidine+retinoic acid for the first time. After a further 6 days, the cells are assayed again for FOXP3 expression, suppressor activity and proliferative activity.

responder T cells = experiment: Suppressive activity of stimulated CD4+ cells on proliferation of CFSE-labeled responder T cells; format: cell-based, human; details: FIG. 4; cells stimulated with vs without azacytidine; ratio 1:10 to responder cells, soluble anti-CD3, 3 days
Method: Each population of stimulated cells was assayed for suppressive activity by culturing the cells with responder T cells labeled with carbofluorescein diacetate succinimydil ester (CFSE) at a ratio of 1:10. The cells were stimulated with soluble anti-CD3 for 3 days and proliferation of the responder cells was measured by dilution of CFSE.
The induced Tregs were added to T respond cells (1:4 ratio) and suppressive activity was calculated.

naïve CD4+ cells [2] = experiment: FOXP3 expression by flow cytometry in naïve CD4+ cells stimulated with anti-CD3/CD28 beads; format: cell-based, human
From the text: FIG. 1 is a typical example of FOXP3 expression at day 6 of cultures of non-regulatory T cells. In the experiments represented in this figure, naïve CD4+ cells were stimulated with 3/28 beads (1 bead per 10 T cells) with (right panel) or without (left panel) TGF-β for 6 days.
This inhibitor blocks TGF-β type I receptor signaling. The figures in FIG. 2A provide data from flow cytometry analysis of stimulated CD4+ cells. Naïve CD4+ cells were stimulated with anti-CD3/CD28 beads for 5 or 6 days in medium only (left-most panel), in the presence of 5 ng/ml TGF-β (middle panel) or with 1 μM azacytidine (right-most panel). The graphs also show data from cells stimulated with and without ALK5i (10 μM).
FIG. 3A provides flow cytometry data from naïve CD4 cells stimulated with anti-CD3/CD28 beads for 5 or 6 days in (in order of the panels from left to right) medium alone, in medium containing TGF-β, in medium containing azacytidine, and in medium containing azacytidine and TGF-β. The arrows indicate the […] after stimulation with anti-CD3/anti-CD28.
Naïve CD4+ cells were stimulated with anti-CD3/28 beads as described above. […] FOXP3 expression among CD4+CD25+ cells was determined by flow cytometry. FIG. 5A is a bar graph showing the indicated mean±SEM for 5 independent experiments. FIG. 5B is representative of experiments in 0.1 μM ATRA.
The traces identified with arrows indicate data from cells expressing FOXP3 after stimulation, and percentage of FOXP3 expressing cells is indicated in each figure.

naïve CD4+ cells [3] = experiment: Membrane-bound TGF-β staining after re-stimulation of naïve CD4+ cells; format: cell-based, human; details: FIG. 8; 6 days with agents, re-stimulated with anti-CD3/28 beads
From the text: Naïve CD4+ cells were stimulated with agents indicated for 6 days and re-stimulated with anti-CD3/28 beads and stained with fluorochrome-conjugated anti-TGF-β for membrane-bound TGF-β.

CD4+GFP-cells = experiment: FOXP3 induction in CD4+GFP- cells of GFP-FOXP3 mice (Example 10); format: cell-based; details: CD4+GFP- cells sorted from GFP-FOXP3 mice
Method: This assessment utilizes mice engineered to express a GFP-FOXP3 fusion protein. CD4+GFP-cells isolated by cell sorting are stimulated in the presence or absence of regulatory compositions containing azacytidine and regulatory compositions containing azacytidine and retinoic acid. Stimulation is also tested with such regulatory compositions with and without TGF-β. […] Purified populations of FOXP3+ cells are isolated by cell sorting. As a positive control, nTregs are also sorted from fresh spleens and lymph nodes. Both iTregs and nTregs cells (5×10^6) are injected into congenic CD45.1-mice. For the azacytidine-generated iTreg there are enough cells to have three to four mice per group. There are at least two mice per group for the nTregs. In some experiments, nTregs are expanded in culture to obtain sufficient numbers of cells.

naïve CD4+ cells [4] = experiment: Surface marker phenotype (CD45RO, CD103, CD127) of stimulated naïve CD4+ cells; format: cell-based, human; details: FIG. 7; after 6 days of stimulation
From the text: Naïve T cells display the CD45RA+ marker and lack CD45RO. […] Finally, nTregs characteristically express the αEβ7 integrin (CD103) induced by TGF-β.

[5] = azacytidine 1 μM, after repeated stimulation

Q: How did the proliferation upon re-stimulation (CD4+ cells) turn out when “2′-Deoxy-5-azacytidine; 5-Aza-2′-deoxycytidine” was run?
A: fail to proliferate upon re-stimulation

Q: What about the “FOXP3 expression vs total T cells stimulated without azacytidine” value [1, 5] of the same molecule?
A: markedly greater

Q: And the “suppressive activity vs total T cells stimulated without azacytidine” value [1, 5]?
A: markedly greater

Q: What about the suppressive activity (responder T cells) of the same molecule?
A: significantly more suppressive; also recorded: develop suppressive activity

Q: What about the “FOXP3 expression (percentage of FOXP3 positive cells)” value (naïve CD4+ cells [2]; FIG. 2A, anti-CD3/CD28 beads 5 or 6 days, 1 μM azacytidine, no exogenous TGF-β, vs medium only) of the same molecule?
A: enhances FOXP3 expression to a similar extent as the enhancement seen with TGF-β; also recorded: markedly augments the percentage of FOXP3 positive cells

Q: CC1=C(/C=C/C(C)=C/C=C/C(C)=C/C(=O)O)C(C)(C)CCC1 [retinoic acid, all-trans retinoic acid] was tested. Which “FOXP3 expression in stimulated CD4+ cells” value (naïve CD4+ cells [2]; FIG. 5, retinoic acid added to TGF-β and azacytidine, ATRA 0.1-0.5 μM, 4 days, CD4+CD25+ cells) did it give?
A: enhances FOXP3 expression

Q: What does the source list for TGF-β?
A: expression of membrane-bound TGF-β (naïve CD4+ cells [3]): some T cells primed with TGF-β now expressed this cytokine on their cell surface; also recorded: some T cells contacted with TGF-β prior to stimulation now expressed this cytokine on their cell surface; FOXP3 expression (CD4+GFP-cells): induces FOXP3 expression; proliferation of stimulated cells ([1]; TGF-β 5 ng/ml, 6 days): hyperproliferative and expand markedly; cells that acquired the CD45RO marker (naïve CD4+ cells [4]): 50%; cells which express FOXP3 (naïve CD4+ cells [2]; FIG. 1, 3/28 beads (1 bead per 10 T cells), 6 days, with vs without TGF-β): twice as many cells which express FOXP3
